In paper PMC9328741 (Microbial Biotechnology, 2022):
Where two headings read alike, the source gives them in different places.

Key:
MycspAAO [1] = assay: initial rates from HMF concentration over time, Lineweaver-Burk; format: biochemical, Mycobacterium sp. MS1601; conditions: 0.1-80 mM HMF, 10 µg/ml enzyme, 100 mM sodium phosphate pH 8, 30 °C
MycspAAO [2] = conditions: 0.1-80 mM HMF, 10 µg/ml enzyme, 100 mM sodium phosphate pH 8, 30 °C

O=Cc1ccc(CO)o1 [5-hydroxymethylfurfural]
Km (MycspAAO [1]): 3300 ± 300 µM | Km (MycspAAO [2]): 1900 ± 5 µM
